Test [1] relates to scopolamine induced memory deficits. The test can be described thus: dark avoidance assay (reversal of scopolamine induced memory deficit). The following applies: sc, scopolamine 3.0 mg/kg sc. The test is classed as in vivo, male CFW mice. From the text: The 5-amino-5,6,7,8-tetrahydroquinolines and related compounds of the present invention are useful as agents for the relief of memory dysfunction, particularly dysfunctions associated with decreased cholinergic activity such as those found in Alzheimer's disease. […] In this assay, three groups of 15 male CFW mice were used, a vehicle/vehicle control group, a scopolamine/vehicle group, and a scopolamine/drug group. Thirty minutes prior to training, the vehicle/vehicle control group received normal saline subcutaneously, and the scopolamine/vehicle and scopolamine/drug groups received scopolamine subcutaneously (3.0 mg/kg, administered as scopolamine hydrobromide). Five minutes prior to training, the vehicle/vehicle control and scopolamine/vehicle groups received distilled water and the scopolamine/drug group received the test compound in distilled water.
The training/testing apparatus consisted of a plexiglass box approximately 48 cm long, 30 cm high and tapering from 26 cm wide at the top to 3 cm wide at the bottom. The interior of the box was divided equally by a vertical barrier into a light compartment (illuminated by 25-watt reflector lamp suspended 30 cm from the floor) and a dark compartment (covered). There was a hole at the bottom of the barrier 2.5 cm wide and 6 cm tall and a trap door which could be dropped to prevent an animal from passing between the two compartments. A Coulbourn Instruments small animal shocker was attached to two metal plates which ran the entire length of the apparatus, and a photocell was placed in the dark compartment 7.5 cm from the vertical barrier and 2 cm off the floor. The behavioral session was controlled by PDP 11/34 minicomputer.
At the end of the pretreatment interval, an animal was placed in the light chamber directly under the light fixture, facing away from the door to the dark chamber. The apparatus was then covered and the system activated. If the mouse passed through the barrier to the dark compartment and broke the photocell beam within 180 seconds, the trap door dropped to block escape to the light compartment and an electric shock was administered at an intensity of 0.4 milliamps for three seconds. The animal was then immediately removed from the dark compartment and placed in its home cage. […] The latency in seconds for each mouse was recorded.
The test day latency in seconds for each animal was recorded and the animals were then discarded.
The high degree of variability (due to season of the year, housing conditions, and handling) found in one trial passive avoidance paradigm is well known. To control for this fact, individual cutoff (CO) values were determined for each test, compensating for interest variability. […] Thus, the CO value was defined as the second highest latency time in the control group to more accurately reflect the 1/15 expected control responders in each test group. Experiments with a variety of standards repeated under a number of environmental conditions led to the development of the following empirical criteria: for a valid test, the CO value had to be less than 120 sec and the vehicle/vehicle control group had to have at least 5/15 animals with latencies greater than CO. For a compound to be considered active the scopolamine/compound group had to have at least 3/15 mice with latencies greater than CO.
The results of the dark avoidance test are expressed as the number of animals per group (%) in which this scopolamine induced memory deficit is blocked as measured by an increase in the latency period.

In another test the target is T1, Acetylcholinesterase (Rattus norvegicus, UniProt P37136).
T1 construct: corpora strita dissected free, weighed and homogenized in 19 volumes; from tissue; host or cells: corpora striata of male Wistar rats, crude homogenate in 0.05 M phosphate buffer pH 7.2
T1 sequence (P37136 32-614): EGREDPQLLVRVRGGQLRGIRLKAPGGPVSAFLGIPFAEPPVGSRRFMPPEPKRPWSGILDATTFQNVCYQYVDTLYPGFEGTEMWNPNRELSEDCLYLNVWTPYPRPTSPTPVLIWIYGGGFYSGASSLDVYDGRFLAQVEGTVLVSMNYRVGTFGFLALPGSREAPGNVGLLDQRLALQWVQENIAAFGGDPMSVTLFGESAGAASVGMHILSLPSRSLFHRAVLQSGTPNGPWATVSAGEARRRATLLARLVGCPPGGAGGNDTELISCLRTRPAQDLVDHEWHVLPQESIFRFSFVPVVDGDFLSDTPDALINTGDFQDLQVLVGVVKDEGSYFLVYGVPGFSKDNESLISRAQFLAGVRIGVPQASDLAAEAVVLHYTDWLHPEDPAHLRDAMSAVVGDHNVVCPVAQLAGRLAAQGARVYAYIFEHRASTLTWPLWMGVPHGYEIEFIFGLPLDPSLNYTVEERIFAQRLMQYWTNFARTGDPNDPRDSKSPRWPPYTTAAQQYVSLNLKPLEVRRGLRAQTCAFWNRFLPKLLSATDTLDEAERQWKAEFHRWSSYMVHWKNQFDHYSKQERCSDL
The test can be described thus: in vitro inhibition of acetylcholinesterase activity (modified Ellman assay, rat corpora striata homogenate). The test is classed as biochemical, Male Wistar rats. The following applies: acetylthiocholine 5 millimolar final, pH 7.2, 10 min preincubation at 37° C. How it is done: In this assay, a modification of a test described by G. L. Ellman, et al., Biochem. Pharmacol., 7, 88 (1961), the following reagents are prepared and employed:
1. 0.05M Phosphate Buffer (pH 7.2)
A solution of monobasic sodium phosphate monhydrate (6.85 g) in distilled water (100 ml) is added to a solution of dibasic sodium phosphate heptahydrate (13.4 g) and distilled water (100 ml) until a pH of 7.2 was attained. The solution was diluted 1 to 10 with distilled water.
The 0.05M Phosphate Buffer (pH 7.2) was added to acetylthiocholine (198 mg) to a total volume of 100 ml, i.e., a quantity sufficient (gs) to 100 ml.
3. 5,5-Dithiobisnitrobenzoic Acid in Buffer
The 0.05M Phosphate Buffer (pH 7.2) was added to 5,5-dithiobisnitrobenzoic acid to a total volume of 100 ml, i.e., a quantity sufficient (gs) to 100 ml.
4. Stock Solution of Drug
A 2 millimolar stock solution of the test drug is prepared in a quantity sufficient of a suitable solvent, either acetic acid or dimethyl sulfoxide to volume with 5,5-Dithiobisnitrobenzene Acid in Buffer. Stock Solution of Drug is serially diluted (1:10) so that the final cuvette concentration is 10^-4 molar.
Male Wistar rats are decapitated, brains rapidly removed, corpora strita dissected free, weighed and homogenized in 19 volumes (approximately 7 mg potein/ml) of 0.05M phosphate Buffer (pH 7.2) using a Potter-Elvehjem homogenizer. A 25 μl aliquot of this suspension is added to 1 ml of the vehicle or various concentrations of the test drug and preincubated for 10 minutes at 37° C. Enzyme activity is measured with a Beckman DU-50 spectrophotometer with the following software and instrument settings:
1. Kinetics Soft-Pac™ Module #598273;
6. Cuvettes--2 ml cuvettes using auto 6--sampler;
7. Blank--1 for each substrate concentration;
8. Interval time--15 seconds (15 or 30 seconds for kinetics);
9. Total time--5 minutes (5 or 10 minutes for kinetics);
13. Results--yes (gives slope); and
Reagents are added to the blank and sample cuvettes as follows:
Blank values are determined for each run to control for non-enzymatic hydrolysis of substrate and these values are automatically subtracted by the Kindata program available on kinetics soft-pac module. This program also calculates the rate of absorbance change for each cuvette.
5,5-Dithiobisnitrobenzoic Acid concentration is 0.5 millimolar yielding 0.25 millimolar final concentration. [formula]
For orientation: In Ellman's method for cholinesterases, released thiocholine reacts with DTNB.

Structures are written as SMILES. Structures can show the parent of a compound that is named as a salt.

The IC50 is the concentration that gives 50% inhibition.

On to `CC(=O)NC1(C)CCCc2[nH]c(=O)ccc21` (stereo not shown) [N-(1,2,5,6,7,8-Hexahydro-5-methyl-2-oxo-5-quinolinyl)acetamide], for which, in test [1] (dose 0.16 mg/kg), the “Percent of Animals with Scopolamine Induced Memory Deficit Reversal” value (shortened to “Percent of Animals”) stood at 20%. `COc1ccc(CCNC2CCCc3c2ccc(=O)n3C)cc1` (stereo not shown) [5,6,7,8-Tetrahydro-5-[[2-(4-methoxyphenyl)ethyl]amino]-1-methyl-2(1H)-quinolinone] came in with an IC50 at Acetylcholinesterase of 9.6 µM. Moreover, the “Percent of Animals” value in test [1] (dose 0.3 mg/kg) is listed as 27%. For `Cl.Cl.Cn1c2c(ccc1=O)C(NCCc1ccccc1)CCC2.O` (stereo not shown) [5,6,7,8-Tetrahydro-1-methyl-5-[(2-phenylethyl)amino]-2(1H)-quinolinone dihydrochloride monohydrate], the “Percent of Animals” value in test [1] (dose 1.0 mg/kg) stood at 33%.

`Cn1c2c(ccc1=O)C(NCCc1ccc(Cl)cc1)CCC2` (stereo not shown) [5-[[2-(4-Chlorophenyl)ethyl]amino]-5,6,7,8-tetrahydro-1-methyl-2(1H)-quinolinone] yielded an IC50 on Acetylcholinesterase of 6.6 µM. Turning to `Cn1c2c(ccc1=O)C(NCCc1ccc(Cl)c(Cl)c1)CCC2` (stereo not shown) [5-[[2-(3,4-Dichlorophenyl)ethyl]amino]-5,6,7,8-tetrahydro-1-methyl-2(1H)-quinolinone], half-maximal inhibition at Acetylcholinesterase (IC50) was put at 2.9 µM. The “Percent of Animals” value in test [1] (dose 1.0 mg/kg) came out at 21%. `CNC(=O)Oc1ccc2c(c1)[C@]1(C)CCN(C)[C@@H]1N2C` [physostigmine, reference compound]: in test [1] (dose 0.31 mg/kg), the “Percent of Animals” value was determined as 20%.

In the case of `CC(=O)N(OCc1ccccc1)C1CCCc2nc(OCc3ccccc3)ccc21.Cl` (stereo not shown) [N-(Phenylmethoxy)-N-[5,6,7,8-tetrahydro-2-(phenylmethoxy)-5-quinolinyl]acetamide hydrochloride], the “Percent of Animals” value in test [1] (dose 1.0 mg/kg) amounted to 20%.

At Acetylcholinesterase, `CCCn1c2c(ccc1=O)C(NCCc1ccccc1)CCC2` (stereo not shown) [5,6,7,8-Tetrahydro-5-[(2-phenylethyl)amino]-1-propyl-2(1H)-quinolinone fumarate] registered an IC50 of 3.1 µM.

For the origin of these results see patent US5110815A, “5-amino-5,6,7,8-tetrahydroquinolines and related compounds and pharmaceutical use” (Hoechst-Roussel Pharmaceuticals Inc., priority 1990, dated 1992).
